# ChEMBL document CHEMBL1141476, “Novel echinocandin antifungals. Part 1: novel side-chain analogs of the natural product FR901379” (Bioorg Med Chem Lett, 2008)
# Starred links: 1 amine or outer side, 2 acyl side, 3 side chain; linkers in the order of their positions; H or OH if unused. Positions of bridges follow the written chain, without caps; N, C: chain ends. Non-standard residues stand in square brackets, D forms with d. Residues, ends and D or L forms follow the SMILES beside them. *: point of attachment. hTyr(3S-OH,4S-OH,3'-OSO3H) = N[C@H](C(=O)O)[C@H](O)[C@@H](O)c1ccc(O)c(OS(=O)(=O)O)c1; Orn(4R-OH,5R-OH) = O=C([C@H](C[C@@H](O)[C@@H](O)N[*:3])N[*:1])[*:2]; Orn(4R-OH,5S-OH) = O=C([C@H](C[C@@H](O)[C@H](O)N[*:3])N[*:1])[*:2]; Pro(3S-OH,4S-Me) = C[C@H]1CN[C@H](C(=O)O)[C@H]1O; X1 = CCCCOc1ccc(-c2ccc(-c3ccc(C(=O)*)cc3)cc2)cc1; Benzoyl(4-octyloxy) = CCCCCCCCOc1ccc(C(=O)*)cc1; Gln(3R-OH) = NC(=O)C[C@@H](O)[C@H](N)C(=O)O; Hyp = O=C(O)[C@@H]1C[C@@H](O)CN1
# Assays:
# [1] = tested on: Aspergillus fumigatus; assay: Antifungal activity against Aspergillus fumigatus FP1305; assay type: functional, organism-based
# [2] = Effect on hemolysis in red blood cells; assay type: ADME, cell-based, Erythrocyte
# [3] = tested on: Candida albicans; assay: Antifungal activity against Candida albicans FP633; assay type: functional
# [4] = tested on: Aspergillus fumigatus; assay: Antifungal activity against Aspergillus fumigatus 8004 in in vivo model; assay type: functional
# [5] = tested on: Candida albicans; assay: Antifungal activity against Candida albicans FP633 in in vivo model; assay type: functional
Compound,IC50 [1],LC30 [2],MIC [3],ED50 [4],ED50 [5]
CCCCCCCOc1ccc2cc(C(=O)N[C@@H]3C[C@@H](O)[C@@H](O)NC(=O)[C@@H]4[C@@H](O)[C@@H](C)CN4C(=O)[C@H]([C@H](O)CC(N)=O)NC(=O)[C@H]([C@H](O)[C@@H](O)c4ccc(O)c(OS(=O)(=O)[O-])c4)NC(=O)[C@@H]4C[C@@H](O)CN4C(=O)C([C@@H](C)O)NC3=O)ccc2c1.[Na+] (stereo not given in full),0.004 µg/mL,> 10000 µg/mL,0.39 µg/mL,,
CCCCCCCCCCCCOc1ccc2cc(C(=O)N[C@@H]3C[C@@H](O)[C@@H](O)NC(=O)[C@@H]4[C@@H](O)[C@@H](C)CN4C(=O)[C@H]([C@H](O)CC(N)=O)NC(=O)[C@H]([C@H](O)[C@@H](O)c4ccc(O)c(OS(=O)(=O)[O-])c4)NC(=O)[C@@H]4C[C@@H](O)CN4C(=O)C([C@@H](C)O)NC3=O)ccc2c1.[Na+] (stereo not given in full),,410 µg/mL,0.78 µg/mL,,
CCCCCCCCOc1ccc2cc(C(=O)N[C@@H]3C[C@@H](O)[C@@H](O)NC(=O)[C@@H]4[C@@H](O)[C@@H](C)CN4C(=O)[C@H]([C@H](O)CC(N)=O)NC(=O)[C@H]([C@H](O)[C@@H](O)c4ccc(O)c(OS(=O)(=O)[O-])c4)NC(=O)[C@@H]4C[C@@H](O)CN4C(=O)C([C@@H](C)O)NC3=O)ccc2c1.[Na+] (stereo not given in full),0.003 µg/mL,> 10000 µg/mL,0.1 µg/mL,0.79 mg/kg,0.46 mg/kg
CCCCCCCCCCOc1ccc2cc(C(=O)N[C@@H]3C[C@@H](O)[C@@H](O)NC(=O)[C@@H]4[C@@H](O)[C@@H](C)CN4C(=O)[C@H]([C@H](O)CC(N)=O)NC(=O)[C@H]([C@H](O)[C@@H](O)c4ccc(O)c(OS(=O)(=O)[O-])c4)NC(=O)[C@@H]4C[C@@H](O)CN4C(=O)C([C@@H](C)O)NC3=O)ccc2c1.[Na+] (stereo not given in full),0.015 µg/mL,750 µg/mL,0.2 µg/mL,,
CCCCCCCCOc1ccc(/C=C/C(=O)N[C@@H]2C[C@@H](O)[C@@H](O)NC(=O)[C@@H]3[C@@H](O)[C@@H](C)CN3C(=O)[C@H]([C@H](O)CC(N)=O)NC(=O)[C@H]([C@H](O)[C@@H](O)c3ccc(O)c(OS(=O)(=O)[O-])c3)NC(=O)[C@@H]3C[C@@H](O)CN3C(=O)C([C@@H](C)O)NC2=O)cc1.[Na+] (stereo not given in full),,> 10000 µg/mL,0.78 µg/mL,,
CCCCCCOc1ccc2cc(C(=O)N[C@@H]3C[C@@H](O)[C@@H](O)NC(=O)[C@@H]4[C@@H](O)[C@@H](C)CN4C(=O)[C@H]([C@H](O)CC(N)=O)NC(=O)[C@H]([C@H](O)[C@@H](O)c4ccc(O)c(OS(=O)(=O)[O-])c4)NC(=O)[C@@H]4C[C@@H](O)CN4C(=O)C([C@@H](C)O)NC3=O)ccc2c1.[Na+] (stereo not given in full),0.025 µg/mL,> 10000 µg/mL,0.78 µg/mL,,
"CCCCOc1ccc(-c2ccc(-c3ccc(C(=O)N[C@H]4C[C@@H](O)[C@@H](O)NC(=O)[C@@H]5[C@@H](O)[C@@H](C)CN5C(=O)[C@H]([C@H](O)CC(N)=O)NC(=O)[C@H]([C@H](O)[C@@H](O)c5ccc(O)c(OS(=O)(=O)O)c5)NC(=O)[C@@H]5C[C@@H](O)CN5C(=O)[C@H]([C@@H](C)O)NC4=O)cc3)cc2)cc1 (X1-[Orn(4R-OH,5R-OH)]T[Hyp][hTyr(3S-OH,4S-OH,3'-OSO3H)][Gln(3R-OH)][Pro(3S-OH,4S-Me)]; lactam 1-C) [listing 1 of 2 here]",,,0.0125 µg/mL,,
CCCCCCCCCCOc1ccc(C(=O)N[C@@H]2C[C@@H](O)[C@@H](O)NC(=O)[C@@H]3[C@@H](O)[C@@H](C)CN3C(=O)[C@H]([C@H](O)CC(N)=O)NC(=O)[C@H]([C@H](O)[C@@H](O)c3ccc(O)c(OS(=O)(=O)[O-])c3)NC(=O)[C@@H]3C[C@@H](O)CN3C(=O)C([C@@H](C)O)NC2=O)cc1.[Na+] (stereo not given in full),0.005 µg/mL,10000 µg/mL,0.2 µg/mL,,
"CCCCCCCCOc1ccc(C(=O)N[C@H]2C[C@@H](O)[C@H](O)NC(=O)[C@@H]3[C@@H](O)[C@@H](C)CN3C(=O)[C@H]([C@H](O)CC(N)=O)NC(=O)[C@H]([C@H](O)[C@@H](O)c3ccc(O)c(OS(=O)(=O)[O-])c3)NC(=O)[C@@H]3C[C@@H](O)CN3C(=O)[C@H]([C@@H](C)O)NC2=O)cc1.[Na+] [FR-131535] ({Benzoyl(4-octyloxy)}-[Orn(4R-OH,5S-OH)]T[Hyp][hTyr(3S-OH,4S-OH,3'-OSO3H)][Gln(3R-OH)][Pro(3S-OH,4S-Me)]; lactam 1-C)",0.015 µg/mL,> 10000 µg/mL,0.78 µg/mL,4.31 mg/kg,3.71 mg/kg
CCCCCOc1ccc(-c2ccc(/C=C/C(=O)N[C@@H]3C[C@@H](O)[C@@H](O)NC(=O)[C@@H]4[C@@H](O)[C@@H](C)CN4C(=O)[C@H]([C@H](O)CC(N)=O)NC(=O)[C@H]([C@H](O)[C@@H](O)c4ccc(O)c(OS(=O)(=O)[O-])c4)NC(=O)[C@@H]4C[C@@H](O)CN4C(=O)C([C@@H](C)O)NC3=O)cc2)cc1.[Na+] (stereo not given in full),0.002 µg/mL,3950 µg/mL,0.05 µg/mL,,
"CCCCOc1ccc(-c2ccc(-c3ccc(C(=O)N[C@H]4C[C@@H](O)[C@@H](O)NC(=O)[C@@H]5[C@@H](O)[C@@H](C)CN5C(=O)[C@H]([C@H](O)CC(N)=O)NC(=O)[C@H]([C@H](O)[C@@H](O)c5ccc(O)c(OS(=O)(=O)O)c5)NC(=O)[C@@H]5C[C@@H](O)CN5C(=O)[C@H]([C@@H](C)O)NC4=O)cc3)cc2)cc1 (X1-[Orn(4R-OH,5R-OH)]T[Hyp][hTyr(3S-OH,4S-OH,3'-OSO3H)][Gln(3R-OH)][Pro(3S-OH,4S-Me)]; lactam 1-C) [listing 2 of 2 here]",0.002 µg/mL,370 µg/mL,,,
CCCCCCCOc1ccc(-c2ccc(C(=O)N[C@@H]3C[C@@H](O)[C@@H](O)NC(=O)[C@@H]4[C@@H](O)[C@@H](C)CN4C(=O)[C@H]([C@H](O)CC(N)=O)NC(=O)[C@H]([C@H](O)[C@@H](O)c4ccc(O)c(OS(=O)(=O)[O-])c4)NC(=O)[C@@H]4C[C@@H](O)CN4C(=O)C([C@@H](C)O)NC3=O)cc2)cc1.[Na+] (stereo not given in full),0.002 µg/mL,910 µg/mL,0.1 µg/mL,,
